Data published in patent US6071932A, “Carbazolypiperines as GABA uptake inhibitors” (British Technology Group Intercorporate Licensing Limited, priority 1995, dated 2000).
Structures can show the parent of a compound that is named as a salt.

Columns and labels:
GABA uptake [1] = conditions: oral; Yunger, L. M. et al. 1984; cited from earlier work
GABA uptake carrier = biological target: T1, GABA uptake carrier (Rattus norvegicus, UniProt P31647); assay: 3H-GABA uptake in crude brain membrane preparation in presence of NNC 05-0711; format: biochemical; conditions: NNC 05-0711 1 mM, 0.9 nM 3H-GABA + 25 nM GABA, pH 7.5, 30° C., 8 min, read-out: IC50 (nM) in vitro, Non-GABA uptake carrier mediated uptake of 3H-GABA
T1 construct: A crude membrane preparation was prepared from selected brain areas; from tissue; host or cells: crude membrane (synaptosomal) preparation from selected brain areas
T1 sequence (P31647 1-627): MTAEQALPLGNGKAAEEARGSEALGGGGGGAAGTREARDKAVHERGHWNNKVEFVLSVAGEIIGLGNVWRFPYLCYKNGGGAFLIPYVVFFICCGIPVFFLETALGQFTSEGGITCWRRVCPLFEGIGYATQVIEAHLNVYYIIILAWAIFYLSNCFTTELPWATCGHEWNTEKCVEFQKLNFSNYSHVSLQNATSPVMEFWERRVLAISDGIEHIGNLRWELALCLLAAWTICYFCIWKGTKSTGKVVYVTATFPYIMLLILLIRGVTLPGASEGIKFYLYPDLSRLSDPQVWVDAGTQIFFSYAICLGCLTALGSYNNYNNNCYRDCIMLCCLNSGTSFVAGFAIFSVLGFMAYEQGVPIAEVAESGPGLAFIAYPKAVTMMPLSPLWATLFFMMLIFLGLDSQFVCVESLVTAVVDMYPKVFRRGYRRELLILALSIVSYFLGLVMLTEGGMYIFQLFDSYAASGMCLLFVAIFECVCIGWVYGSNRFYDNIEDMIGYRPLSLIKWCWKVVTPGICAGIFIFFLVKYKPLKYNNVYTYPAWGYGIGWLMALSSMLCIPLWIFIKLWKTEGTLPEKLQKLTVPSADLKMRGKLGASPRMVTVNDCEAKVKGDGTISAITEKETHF
Experimental: ^3 H-GABA uptake was measured by a modification of the method of Fjalland et al., (1978). A crude membrane preparation was prepared from selected brain areas by homogenization in 20 ml of ice-cold 0.32 M sucrose with a hand driven teflon/glass Potter-Elvehjem homogenizer. The homogenate was centrifuged at 4° C. for 10 min. at 1.000×g, and the pellet was discarded. The supernatant was recentrifuged at 4° C. for 20 min. at 20.000×g. The pellet was then homogenized in 50 volumes 0.32 M sucrose. To 300 μl uptake-buffer ([…], 15.3 mM KCl, 6.67 mM MgSO4, 3.83 mM CaCl2, 16.67 mM glucose, 66.67 mM Tris, pH 7.5 at 30° C.) was added 1-(2-(((diphenylmethylene)amino)oxy)ethyl)-1,2,5,6-tetrahydro-3-pyridinecarboxylic acid (NNC 05-0711) (1 mM final concentration), 100 μl test substance and 50 μl tissue suspension. The samples were mixed and incubated at 30° C. for 8 min. Then ^3 H-GABA (0.9 nM final concentration) and unlabelled GABA (25 nM final concentration) was added, and the incubation was continued for an additional 8 min. The reaction was terminated by rapid filtration through Whatman GF/F glass fiber filters under vacuum. The filters were then washed twice in 10 ml of ice-cold isotonic saline, and the tritium trapped on the filters was quantified by conventional scintillation spectroscopy. Non-GABA uptake carrier mediated uptake of ^3 H-GABA was determined in the presence of […].

GABA uptake [2] = conditions: cited from earlier work

O=C(O)CC1CCN(CCC=C(c2ccccc2)c2ccccc2)C1 (stereo not drawn) [SK&F 100561, N-(4,4-diphenyl-3-buten-1-yl)-homo-β-proline]
orally active inhibition of GABA uptake (GABA uptake [1]): orally active inhibitors of GABA uptake

O=C(O)C1CCCN(CCC=C(c2ccccc2)c2ccccc2)C1 (stereo not drawn) [SK&F 89976A, N-(4,4-diphenyl-3-buten-1-yl)nipecotic acid]
orally active inhibition of GABA uptake (GABA uptake [1]): orally active inhibitors of GABA uptake

O=C(O)C1CCCN(CCC=C(c2ccccc2)c2cccs2)C1 (stereo not drawn) [SK&F 100604J, N-(4-phenyl-4-(2-thienyl)-3-buten-1-yl)nipecotic acid]
orally active inhibition of GABA uptake (GABA uptake [1]): orally active inhibitors of GABA uptake

C[C@@H](CN1CCC(O)(c2ccccc2)CC1)Cn1c2ccccc2c2ccccc21 [Compound 11, (S)-1-((3-(9H-Carbazol-9-yl)-2-methyl)-1-propyl)-4-ph-enylpiperidin-4-ol hydrochloride]
IC50 (GABA uptake carrier): 1480 nM

O=C(O)C1CCCNC1 (stereo not drawn) [nipecotic acid, 3-piperidinecarboxylic acid]
inhibition of GABA uptake from the synaptic cleft into presynaptic nerve terminals and glial cells (GABA uptake [2]): well-known and potent inhibitor

CCc1ccc2c(c1)c1ccccc1n2CCCN1CCC(O)(c2ccccc2)CC1 [Compound 16, 1-(3-(3-Ethyl-9H-carbazol-9-yl)-1-propyl)-4-phenylpiperidin-4-ol]
IC50 (GABA uptake carrier): 1700 nM

C[C@H](CN1CCC(O)(c2ccccc2)CC1)Cn1c2ccccc2c2ccccc21 [Compound 13, (R)-1-((3-(9H-Carbazol-9-yl)-2-methyl)-1-propyl)-4-phenylpiperidin-4-ol hydrochloride]
IC50 (GABA uptake carrier): 7860 nM

CC(Cl)CC(=O)n1c2ccccc2c2ccccc21 (stereo not drawn) [Compound 23, 1-(9H-Carbazol-9-yl)-3-chlorobutan-1-one]
IC50 (GABA uptake carrier): 3100 nM

O=C(O)C1=CCCN(CCC=C(c2ccccc2)c2ccccc2)C1 [SK&F 100330A, N-(4,4-diphenyl-3-buten-1-yl)guvacine]
orally active inhibition of GABA uptake (GABA uptake [1]): orally active inhibitors of GABA uptake
